Read-outs that look alike come from different tables or passages of the source.
Legend:
[1] = tested on: common species associate with S. molesta or species growing in nearby habitats; assay: Field selectivity test on associated plant species (Example 16); type: in vivo; details: 0.5% with 0.25% soap; after two foliar applications
Method: General Experimental Procedure: Field experiments were conducted in an isolated pond in east Texas, United States. The pond was infested with type III S. molesta plants that formed dense mats along the edge and type I and II plants floating on the water surface. 4-hydroxybenzoic and 3,4-dihydroxybenzoic acids were purchased from a commercial source (99.9%, HPLC analysis). 500 m^2 of S. molesta was treated with 50 L 0.5% 4-hydroxybenzoic acid mixed with 0.25% DAWN® dish soap and 500 m^2 of S. molesta was treated with 50 L 0.5% 3,4-dihydroxybenzoic acid mixed with 0.25% DAWN® dish soap by Solo 433 motorized backpack sprayer. Plant growth and survival status were documented through photographs and the living biomass was sampled 48 hrs after each treatment. The experimental species for selectivity tests were mainly common species associate with S. molesta or species growing in nearby habitats. […]

S. molesta [2] = assay: Phytotoxic analysis by pipet application on upper or lower leaf surface; type: in vivo, Salvinia molesta; details: Salvinia molesta, topical, 72 h
Method: General Experimental Procedure: 4-Hydroxybenzoic and 3,4-dihydroxybenzoic acids and 14 of their analogs were purchased commercially. Each of 16 compounds were prepared as 5 mL experimental solutions with NANOPURE™ water at 1% concentration. A total of 102 healthy and untreated living type III plants of S. molesta (approximately 10 g in fresh weight each) were cultured and tested in 17 plastic containers (23×23 cm, 2.37 L) with six plants in each container in a greenhouse (30° C. during the day time and 20° C. at night). The first container served as the controls without any treatment, the plants in each of the other 16 containers were treated by one of the 16 testing compounds, respectively. The plants in each container were randomly classified into two groups evenly. For each plant in the first group, 10 μL of 1% experimental solution was applied by pipet on the upper surface of each blade of the six pairs of large floating leaves close to the terminal bud. For each plant in the second group, 10 μL of 1% experimental solution was applied by pipet on the lower surface of each blade of the six pairs of large floating leaves close to the terminal bud. The leaf surfaces were examined for damage and analyzed 72 hrs after the treatments.

king protea explants = details: MS medium culture, cited from earlier work
Enterbacter ludwigii = details: cited from earlier work
[3] = tested on: F. oxysporum, F. nivale, Aspergillus flavus, and A. fumigatus; details: cited from earlier work
[4] = tested on: Fusarium oxysporum f. sp. niveum; details: cited from earlier work
[5] = tested on: anthracnose pathogen and N-fixing bacteria in peanut; details: high concentrations; cited from earlier work
S. molesta [6] = assay: Field test in isolated ponds, plots on water surface and soils (Example 17); type: in vivo, Salvinia molesta; details: 0.5% 4-hydroxybenzoic acid; for % of Living Biomass/Total Biomass (mean ± s.d.), Type I and II Plants on Water Surface / % of Living Biomass/Total Biomass (mean ± s.d.), Type III Plants on Soils: 12 days
Method: General Experimental Procedure: The field experiments were conducted in isolated ponds in east Texas, United States. The ponds are small (each were 200-500 m^2 in size) in the hardwood forests and each was fully covered with S. molesta plants and also included least duckweed (L. minuta) and Brazillan watermeal (W. brasillensis). The area was divided by plots, each plot had 50 m^2 in area including approximately 40 m^2 of type I and II S. molesta plants on the water surface and 10 m^2 of type III S. molesta plants on soils. Each plot, except a control plot, was treated with 20 L one of the following experimental solutions by Solo 433 motorized backpack sprayer: 0.5% 4-hydroxybenzoic acid, 0.5% 4-hydroxybenzoic acid mixed with 0.25% DAWN® dish soap, 0.5% 4-hydroxybenzoic acid and 0.25% 3,4-dihydroxybenzoic acid, 0.5% 4-hydroxybenzoic acid and 0.25% 3,4-dihydroxybenzoic acid with 0.25% DAWN® dish soap, and 0.25% DAWN® dish soap. Each test condition had three replicates. 12 days after the treatments, plant growth status was photographed and the plant survival rate was measured by three 1×1 m random sample plots for floating plants on the water surface and two samples in 1×1 m random sample plots for plants on soils. Pairwise comparisons for all treatments (including Control) for living biomass were made using Tukey test at alpha=0.05, which was done using SAS (SAS 9.4).

taro = details: in vivo; cited from earlier work
[7] = tested on: rhizosphere fungal populations; details: cited from earlier work
[8] = tested on: rhizosphere bacterial population; details: cited from earlier work
leaf vegetables = details: in vivo; cited from earlier work
tobacco = details: from root exudates of tobacco; cited from earlier work
[9] = listed as 4-hydroxybenzoic acid

O=C(O)c1ccc(O)c(O)c1 [3,4-dihydroxybenzoic acid]
damage to other species tested for selectivity [1]: none of the other species tested for selectivity except A. caroliniana were severely damaged or killed | pest or weed control at 1 % (S. molesta [2]; read-out: Inhibition (%) Lower leaf Application, 10 μL of 1% solution per blade, lower surface): 72.2% | pest or weed control at 1 % (S. molesta [2]; read-out: Inhibition (%) Upper leaf Application, 10 μL of 1% solution per blade, upper surface): > 85% | effect on root mass of king protea explants (king protea explants; 100 mg/L): increase the root mass | effect on growth of king protea explants (king protea explants; 500 mg/L): inhibit growth | impacts on root growth of king protea explants (patent's reading of the cited data) (king protea explants): no significant impacts

O=C(O)c1ccc(O)cc1 [4-Hydroxybenzoic acid]
growth of Enterbacter ludwigii (Enterbacter ludwigii): stimulated the growth | hypha growth and spore proliferation [3]: promote the hypha growth and spore proliferation | mycelial growth [4]: stimulate the mycelial growth | effect on anthracnose pathogen and N-fixing bacteria [5]: inhibited | damage to other species tested for selectivity [1]: none of the other species tested for selectivity except A. caroliniana were severely damaged or killed | pest or weed control at 1 % (S. molesta [2]; 10 μL of 1% solution per blade, lower surface, read-out: Inhibition (%) Lower leaf Application): 100% | pest or weed control at 1 % (S. molesta [2]; 10 μL of 1% solution per blade, upper surface, read-out: Inhibition (%) Upper leaf Application): > 85% | induced new growth type (S. molesta [6]): primarily type I and II | % of Living Biomass/Total Biomass (mean ± s.d.), Type I and II Plants on Water Surface (S. molesta [6]): 34.7% | % of Living Biomass/Total Biomass (mean ± s.d.), Type III Plants on Soils (S. molesta [6]): 14.3% | % of Living Biomass/Total Biomass (mean ± s.d.), Type I and II Plants on Water Surface (S. molesta [6]; [9]): 34.7% | % of Living Biomass/Total Biomass (mean ± s.d.), Type III Plants on Soils (S. molesta [6]; [9]): 14.3% | inhibitory activity on the growth of taro (taro): weaker inhibitory activity than benzoic acid | Shannon-Wiener index, rhizosphere fungal populations [7]: increase | Shannon-Wiener index, rhizosphere bacterial population [8]: decrease | inhibitory activity in growth of some leaf vegetables (leaf vegetables): weaker than adipic acid | activity on growth and photosynthetic rate in tobacco (tobacco): some inhibitory activity
